Experimental data as given in paper PMC6272662, “Trypanocidal Activity of Long Chain Diamines and Aminoalcohols” (Molecules, 2015).

Assays:
[1] = tested on: Trypanosoma cruzi epimastigotes CL Brener strain clone B5 (CL-B5); assay: Epimastigote susceptibility assay, CL-B5 clone (β-galactosidase activity, CPRG); assay type: cell-based; conditions: for Epimastigotes CL-B5 Clone SI: NCTC-929 cytotoxicity / epimastigote IC50; for Epimastigotes CL-B5 Clone PNFX (nifurtimox IC50/compound IC50) / IC50: epimastigotes, CL-B5 clone; for IC50: 72 h at 28 °C, β-galactosidase readout, mean ± SEM
Procedure: (§1) For in vitro studies, the strains MHOM/CO/04/MG (MG), MHOM/CO/05/JEM (JEM) and CL Brener strain clone B5 (CL-B5) were used. The MG and JEM strains correspond to Group I and Haplotype Ia isolates from two Colombian patients in the acute phase, and CL-B5 is a strain stably transfected with Escherichia coli β-galactosidase gene (lacZ). Epimastigotes were grown in plastic culture flasks at 28 °C, in axenic liver-infusion tryptose (LIT) growth medium, supplemented with 10% heat inactivated (30 min at 56 °C) foetal calf serum (FCS; Sigma), […] hemin (Sigma), and 10 µg/mL gentamycin (Sigma) and harvested in the exponential phase for conducting the experiments. Cultures were continuously maintained in logarithmic growth by weekly passages.
Trypanocidal activity against CL-B5 strain was also assessed by measuring β-galactosidase activity. Briefly, log-phase epimastigotes were seeded in 96-well microplates at a density of 2.5 × 10^5 parasites/mL in a final volume of 200 μL/well and incubated within the compounds for 72 h at 28 °C. Afterwards, 50 μL of the β-galactosidase substrate chlorophenol red β-D-galactopyranoside (CPRG, Roche) in 0.9% Triton X-100 (Panreac) solution were added to each well (200 μM, pH 7.4) and the plates incubated at 37 °C for 3 h. Anti-epimastigote activity was estimated by reading absorbance at 595 nm. Each concentration was assayed by triplicate, in three independent experiments. […] In all spectrophotometric assays, anti-epimastigote activity percentages were calculated as (OD control wells − OD experimental wells) ×100/OD control wells.
(§2) Furthermore the Selectivity Index (SI = mammalian cell LC50/epimastigote IC50) for each compound was calculated to compare the antiprotozoal activity with its respective mammalian cell cytotoxicity.

J774.2 macrophages = assay: in vitro; conditions: for CC50: read-out: Macrophages LC50, J774.2 macrophages, 72 h, mean ± SEM
Procedure: (§3) The mouse cell lines J774.2 macrophages and NCTC clone 929 fibroblasts were used and cultured in plastic culture flasks. J774.2 and NCTC-929 cells were grown using DMEM and BME without phenol-red, respectively. Both media were supplemented with 10% heat inactivated fetal calf serum, 2 mM glutamine, 100 U/mL penicillin and 100 μg/mL streptomycin. Cell cultures were maintained at 37 °C in a humidified atmosphere containing 5% CO2 and subpassaged once a week. Cells in the pre-confluence phase were harvested with an EDTA-trypsin solution for the experiments.
(§4) Unspecific cytotoxicity was evaluated over phagocytic macrophages J774.2 cell line. To study cytotoxicity on J774.2 cells, 200 μL of a suspension of 2 × 10^5 macrophages/mL were added to 96 well flat-bottom microplates (Sigma). Cells were allowed to attach for 24 h at 37 °C and then exposed to the compounds for 72 h at the same concentrations as used for drug screening. […] Each concentration was assayed by triplicate, in independent experiments. Cytotoxicity was assessed by the Trypan Blue and XTT techniques and LC50 was calculated as described above.

NCTC-929 fibroblasts = assay: in vitro; assay type: cell-based; conditions: NCTC-929 fibroblasts, 48 h, resazurin, mean ± SEM; read-out: Cytotoxicity NCTC-929 LC50
Procedure: (§5) NCTC-929 cells were placed in triplicate in 96-well microtitre plates at 15 × 10^3 cells per well in 100 µL of MEM supplemented with FBS and antibiotics. The cells were grown overnight at 37 °C in 5% CO2. Thereafter, the medium was removed and the compounds were added in 200 µL of medium and plates were incubated 48 h at 37 °C in 5% CO2. After incubation, 20 µL of 2 mM resazurin (Sigma) solution was added to each well. The plates were incubated for 3 h and metabolic activity was measured by fluorimetric readings taken in a plate fluorometer (Infinite 200, TECAN, Mannedorf, Switzerland) at λexcitation 535 nm and λemission 590 nm, according to the Alamar blue® Assay.

[2] = tested on: Trypanosoma cruzi amastigotes CL-B5 clone; assay: Amastigote susceptibility assay, CL-B5 clone in NCTC-929 fibroblasts (CPRG); assay type: cell-based; conditions: for Amastigotes CL-B5 Clone SI: NCTC-929 cytotoxicity / amastigote IC50; for IC50: intracellular amastigotes in NCTC-929 fibroblasts, 7 days, mean ± SEM
Procedure: For the anti-amastigote assays, axenic cultures of epimastigotes reaching their stationary phase of growth (14 day-old cultures) were used to infect non-confluent monolayers of NCTC-929 fibroblasts to obtain tissue culture derived trypomastigotes (TCT). After 24 h at 33 °C in a humidified 5% CO2 atmosphere, the infected cultures were washed with phosphate buffer saline (PBS) to removed non-penetrated epimastigotes. TCT were harvested from the supernatant of the cultures after one week of incubation in these conditions of temperature and humidity.
For this assay, 120 μL of BME containing 10,000 NCTC-929 fibroblasts/well were seeded in 48-well plates (Costar) and after their attachment, infected with TCT obtained as above in a 1:6 cell-parasite ratio. The plates were incubated at 33 °C and 5% CO2 overnight and after the infection, experimental wells were washed with PBS to eliminate non-penetrated TCT. […] Then, 50 μL of a CPRG solution in 3% Triton X-100 (pH 7.4) were added to each well in a final concentration of 400 μM and the plates incubated 3 h at 37 °C. Finally, anti-amastigote activity was estimated by reading absorbance at 595 nm in a plate reader (Infinite 200, Tecan) and calculated as in Fonseca-Berzal et al.. IC50 and NI indexes were calculated as above.

[3] = tested on: Trypanosoma cruzi epimastigotes strain MG (MHOM/CO/04/MG); assay: Epimastigote susceptibility assay, MG strain (Trypan Blue and XTT); assay type: cell-based; conditions: for MG Strain SI (Selectivity Index: LC50-macrophages/IC50-epimastigotes): MG strain epimastigotes vs J774.2 macrophages; for MG Strain PNFX (potency relative to NFX = IC50-NFX/IC50-compound; also called NI) / IC50: epimastigotes, MG strain; for IC50: 72 h at 28 °C, 0.1-70.0 µM, mean ± SEM
Procedure: as §1
(§6) Three different strains of T. cruzi were used for the primary screening on epimastigote forms. For strains MG and JEM, the screening assay was performed with approximately 1 × 10^5 epimastigotes in logaritmic growth phase in 200 μL of supplemented LIT medium per well in 96-well flat bottoned plates (Costar, Corning, Cornig, NY, USA). […] The plates were incubated for 72 h at 28 °C and all experimental conditions were evaluated in triplicate in three independent experiments. The epimastigote growth inhibition was microscopically determined by the Trypan Blue dye exclusion assay and XTT (2,3-bis-(2-methoxy-4-nitro-5-sulfophenyl)-5-[(phenylamino)carbonyl]-2H-tetrazolium hydroxide). Regarding the first method, an aliquot from every culture was suspended in 0.4% trypan blue solution for 5 min and cell viability was determined under microscope by counting live parasites in each condition in a Neubauer chamber. Anti-epimastigote activity percentage was calculated as (Parasite counts in control wells-Parasite counts in experimental wells) × 100/Parasite counts in control wells. Trypanocidal activity over both strains was also measured adding 50 μL of XTT solution per well to obtain a final concentration of 0.3 mg/mL. The plate was re-incubated 24 h in the dark at 37 °C and orange formazan solution formed, was spectrophotometrically quantified at 450 nm with a 630 nm reference filter, using an Ear400FT ELISA reader.
as §2

[4] = tested on: Trypanosoma cruzi epimastigotes strain JEM (MHOM/CO/05/JEM); assay: Epimastigote susceptibility assay, JEM strain (Trypan Blue and XTT); assay type: cell-based; conditions: for JEM Strain SI (Selectivity Index: LC50-macrophages/IC50-epimastigotes): JEM strain epimastigotes vs J774.2 macrophages; for JEM Strain PNFX (potency relative to NFX = IC50-NFX/IC50-compound; also called NI) / IC50: epimastigotes, JEM strain; for IC50: 72 h at 28 °C, 0.1-70.0 µM, mean ± SEM
Procedure: as §1, §6, §2

in vitro [5] = conditions: mouse
Procedure: as §3, §4

in vitro [6] = assay type: cell-based; conditions: mouse
Procedure: as §5

Chagas disease = tested on: Chagas disease; parameters: method as in PMID 22614520, PMID 22760123, PMID 22686518, PMID 19967227; conditions: chronic cases of Chagas disease; ref [6],[7],[8],[9]; cited from earlier work
[7] = Trypanosoma cruzi, NCTC929, 168 h

Compound: 2-(tert-Butoxycarbonyl)-dodecan-1,2-diamine [Compound 14]
- Epimastigotes CL-B5 Clone SI [1]: 11.8
- Epimastigotes CL-B5 Clone PNFX (nifurtimox IC50/compound IC50) [1]: 4.2
- IC50 [1]: 2.5 ± 0.03 µM
- CC50 (J774.2 macrophages): 47.1 ± 0.35 µM
- CC50 (NCTC-929 fibroblasts): 29.6 ± 0.01 µM
- Amastigotes CL-B5 Clone SI [2]: 9.9
- Amastigotes CL-B5 Clone PNFX (nifurtimox IC50/compound IC50) [2]: 0.2
- IC50 [2]: 3 ± 0.21 µM
- MG Strain SI (Selectivity Index: LC50-macrophages/IC50-epimastigotes) [3]: 4.4
- MG Strain PNFX (potency relative to NFX = IC50-NFX/IC50-compound; also called NI) [3]: 2.0
- IC50 [3]: 10.8 µM
- JEM Strain SI (Selectivity Index: LC50-macrophages/IC50-epimastigotes) [4]: 3.3
- JEM Strain PNFX (potency relative to NFX = IC50-NFX/IC50-compound; also called NI) [4]: 1.0
- IC50 [4]: 14.5 ± 0.05 µM

Compound: 2-tert-Butoxycarbonyl-hexadecan-1,2-diamine [Compound 15]
- Epimastigotes CL-B5 Clone SI [1]: 10.6
- Epimastigotes CL-B5 Clone PNFX (nifurtimox IC50/compound IC50) [1]: 4.3
- IC50 [1]: 2.4 ± 0.01 µM
- CC50 (J774.2 macrophages): 48.1 ± 0.15 µM
- CC50 (NCTC-929 fibroblasts): 25.6 ± 0.06 µM
- Amastigotes CL-B5 Clone SI [2]: 9.8
- Amastigotes CL-B5 Clone PNFX (nifurtimox IC50/compound IC50) [2]: 0.2
- IC50 [2]: 2.6 ± 0.23 µM
- MG Strain SI (Selectivity Index: LC50-macrophages/IC50-epimastigotes) [3]: 4.0
- MG Strain PNFX (potency relative to NFX = IC50-NFX/IC50-compound; also called NI) [3]: 1.8
- IC50 [3]: 12 ± 2.15 µM
- JEM Strain SI (Selectivity Index: LC50-macrophages/IC50-epimastigotes) [4]: 2.4
- JEM Strain PNFX (potency relative to NFX = IC50-NFX/IC50-compound; also called NI) [4]: 0.7
- IC50 [4]: 20.4 ± 0.3 µM

Compound: CCCCCCCCCCCCCCC(N)CO (centres unmarked) [Compound 2, 2-Aminohexadecanol]
- Epimastigotes CL-B5 Clone SI [1]: 7.2
- IC50 ([1]; Trypanosoma cruzi): 3.5 ± 0.01 µM
- Epimastigotes CL-B5 Clone PNFX (nifurtimox IC50/compound IC50) [1]: 3.0
- CC50 at 72 h (in vitro [5]): 77.8 ± 0.35 µM
- CC50 at 48 h (in vitro [6]): 25.2 ± 0.12 µM
- Amastigotes CL-B5 Clone SI [2]: 14.0
- IC50 [2, 7]: 1.8 ± 0.12 µM
- Amastigotes CL-B5 Clone PNFX (nifurtimox IC50/compound IC50) [2]: 0.3
- MG Strain SI (Selectivity Index: LC50-macrophages/IC50-epimastigotes) [3]: 3.3
- IC50 ([3]; Trypanosoma cruzi, 72 h): 23.7 ± 3.15 µM
- MG Strain PNFX (potency relative to NFX = IC50-NFX/IC50-compound; also called NI) [3]: 0.9
- JEM Strain SI (Selectivity Index: LC50-macrophages/IC50-epimastigotes) [4]: 26
- IC50 ([4]; Trypanosoma cruzi, 72 h): 3 ± 1.5 µM
- JEM Strain PNFX (potency relative to NFX = IC50-NFX/IC50-compound; also called NI) [4]: 4.9

Compound: CCCCCCCCCCCCCCC(CO)NCC (centres unmarked) [Compound 5, 2-(Ethylamino)hexadecanol]
- Epimastigotes CL-B5 Clone SI [1]: 9.8
- IC50 ([1]; Trypanosoma cruzi): 3.3 ± 0.1 µM
- Epimastigotes CL-B5 Clone PNFX (nifurtimox IC50/compound IC50) [1]: 3.1
- CC50 at 72 h (in vitro [5]): 43.4 ± 0.5 µM
- CC50 at 48 h (in vitro [6]): 32.4 ± 0.02 µM
- Amastigotes CL-B5 Clone SI [2]: 54
- IC50 [2, 7]: 0.6 ± 0.25 µM
- Amastigotes CL-B5 Clone PNFX (nifurtimox IC50/compound IC50) [2]: 1.0
- MG Strain SI (Selectivity Index: LC50-macrophages/IC50-epimastigotes) [3]: 2.0
- IC50 ([3]; Trypanosoma cruzi, 72 h): 21.6 ± 2.95 µM
- MG Strain PNFX (potency relative to NFX = IC50-NFX/IC50-compound; also called NI) [3]: 1.0
- JEM Strain SI (Selectivity Index: LC50-macrophages/IC50-epimastigotes) [4]: 2.3
- IC50 ([4]; Trypanosoma cruzi, 72 h): 19.3 ± 1.35 µM
- JEM Strain PNFX (potency relative to NFX = IC50-NFX/IC50-compound; also called NI) [4]: 0.8

Compound: CCCCCCCCCCCCCCC(CO)NCCCC (centres unmarked) [Compound 6, 2-(Butylamino)hexadecanol]
- Epimastigotes CL-B5 Clone SI [1]: 22.7
- IC50 ([1]; Trypanosoma cruzi): 4.2 ± 0.52 µM
- Epimastigotes CL-B5 Clone PNFX (nifurtimox IC50/compound IC50) [1]: 2.5
- times less toxic than NFX (J774.2 macrophages; macrophages LC50 relative to NFX): 1.3
- CC50 at 72 h (in vitro [5]): 63.9 ± 3.5 µM
- CC50 at 48 h (in vitro [6]): 95.6 ± 1.19 µM
- Amastigotes CL-B5 Clone SI [2]: 47.8
- IC50 [2, 7]: 2 ± 0.27 µM
- Amastigotes CL-B5 Clone PNFX (nifurtimox IC50/compound IC50) [2]: 0.3
- IC50 ([3]; Trypanosoma cruzi, 72 h): 3.2 ± 0.2 µM
- MG Strain PNFX (potency relative to NFX = IC50-NFX/IC50-compound; also called NI) [3]: 6.6
- IC50 ([4]; Trypanosoma cruzi, 72 h): 2.8 ± 0.75 µM
- JEM Strain PNFX (potency relative to NFX = IC50-NFX/IC50-compound; also called NI) [4]: 5.3

Compound: CC1CS(=O)(=O)CCN1/N=C/c1ccc([N+](=O)[O-])o1 (centres unmarked) [NFX, nifurtimox, reference compound]
- IC50 ([1]; Trypanosoma cruzi): 10.4 ± 1.3 µM
- average cure rate (Chagas disease): less than 20%
- IC50 [2, 7]: 0.6 ± 0.01 µM
- IC50 ([3]; Trypanosoma cruzi, 72 h): 21.2 ± 1.16 µM
- IC50 ([4]; Trypanosoma cruzi, 72 h): 14.8 ± 1.24 µM
